Reference: patent publication US5300491A, “Treatment of protozoal infection” (priority 1992, dated 1994)
Where two headings read alike, the source gives them in different places.

System: Entamoeba histolytica
Assay type: cell-based
Source text: E. histolytica isolates representing three distinct zymodemes (I, II or XIV) were derived from a range of geographical locations. The patients from whom the isolates were obtained were either pathogenic (i.e. presented dysentery), or non-pathogenic (i.e., presented a non-dysenteric stage of infection characterized by passing of cysts or trophozoites). The following table identifies the E. histolytica isolates in accordance with the above criteria:
Each isolate was a xenic culture, i.e., it contained, in addition to the E. histolytica amoeba, the normally occurring patient faecal microflora. The cultures were maintained according to the method of Robinson, Trans. Roy. Soc. Trop. Med. Hyg. 62, 285-94, (1968). Bacitracin (70 I.U./mg) and its zinc salt (65 I.U./mg) were obtained from Apothekernes Laboratorium A.S (Oslo, Norway). Following microtitre-assay standardization and pilot testing of the drugs (results not presented), the following assay procedure was established. Bacitracin was screened over the range of 20.0-0.625 mg/ml by doubling dilution. 30 mg/ml bacitracin was also examined. […] The remaining wells were run as controls. An initial stock solution of 75 mg/ml bacitracin was prepared in starch-free Robinson medium (SFRM) . Subsequent to loading the first set of wells, the stock was diluted with SFRM to 50 mg/ml, which was used to prepare the remaining concentrations. […] 100 μl volumes of both drugs were then double-diluted in SFRM to provide 2.5X concentrates of the required final concentrations in the microtitre plates. 50 μl of a 25 mg% starch (BDH) solution (in SFRM) was then added to each well. 16-18 hours before the end of the required 48-hour culture period, the amoeba isolates were passaged to fresh tubes containing starch-free Robinson medium. At the end of the culture period, the amoebae were harvested in a small volume of medium and resuspended in at least 20 volumes SFRM. The suspensions were centrifuged at 1000 rpm for 5 minutes prior to re-suspension in fresh medium and counted in a modified Neubauer chamber. Amoebae were centrifuged as before and the pellet resuspended to a concentration of 2.5×10^4 /ml SFRM. 100 μl aliquots were then pipetted into respective wells to provide duplicate cultures of each isolate for each concentration assayed. The plates were then placed in an anaerobic chamber (HP11, Oxoid) at 37° C. for 24 hours. While this procedure provided sufficient starch for the amoebae, the concentration was such that at 24 hours the plates were easily read and quantitified by direct observation using an inverted microscope. Viability was assessed by the addition of Trypan blue to a final concentration of 0.1%.
Readings from each of the studies were collected and stored until all three experiments were completed in order to reduce any bias in subsequent readings. Minimun inhibitory and minimum lethal concentrations were given in mg/ml. […]

[1] = span over all xenic isolates and studies
[2] = xenic isolate 70k, Experiment 1
[3] = xenic isolate 70k, Experiment 2
[4] = xenic isolate 70k, Experiment 3
[5] = xenic isolate 116k, Experiment 1
[6] = xenic isolate 116k, Experiment 2
[7] = xenic isolate 116k, Experiment 3
[8] = xenic isolate 418, Experiment 1
[9] = xenic isolate 418, Experiment 2
[10] = xenic isolate 418, Experiment 3
[11] = xenic isolate 1246, Experiment 1
[12] = xenic isolate 1246, Experiment 2
[13] = xenic isolate 1246, Experiment 3
[14] = xenic isolate AiDO, Experiment 1
[15] = xenic isolate AiDO, Experiment 2
[16] = xenic isolate AiDO, Experiment 3
[17] = xenic isolate BiLO, Experiment 1
[18] = xenic isolate BiLO, Experiment 3
[19] = xenic isolate DOGO, Experiment 1
[20] = xenic isolate DOGO, Experiment 2
[21] = xenic isolate DOGO, Experiment 3
[22] = xenic isolate OMAk, Experiment 1
[23] = xenic isolate OMAk, Experiment 3
[24] = xenic isolate Sh2, Experiment 1
[25] = xenic isolate Sh2, Experiment 2
[26] = xenic isolate Sh2, Experiment 3
[27] = xenic isolate T2k, Experiment 1
[28] = xenic isolate T2k, Experiment 2
[29] = xenic isolate T2k, Experiment 3
[30] = xenic isolate URU1, Experiment 1
[31] = xenic isolate URU1, Experiment 2
[32] = xenic isolate URU1, Experiment 3
[33] = xenic isolate URU19, Experiment 1
[34] = xenic isolate URU19, Experiment 3

Zinc bacitracin
concentration at which precipitation occurred (in the xenic culture assay medium): ≥ 5000 µg/mL
MICs [1]: 0.16 to 1.25 mg/mL
MLCs [1]: 1.25 to 5.0 mg/mL
Minimum Lethal Concentration (MLC) (xenic Isolate 1, single study over a narrower range of drug concentration (Table 4)): 1600 µg/mL
Minimum Lethal Concentration (MLC) (xenic Isolate C1, single study over a narrower range of drug concentration (Table 4)): 1400 µg/mL
Minimum Inhibitory Concentration (MIC) (xenic isolate 1, Experiment 1): 630 µg/mL
Minimum Lethal Concentration (MLC) (xenic isolate 1, Experiment 1): 2500 µg/mL
Minimum Inhibitory Concentration (MIC) (xenic isolate 1, Experiment 2): 1250 µg/mL
Minimum Lethal Concentration (MLC) (xenic isolate 1, Experiment 2): 2500 µg/mL
Minimum Inhibitory Concentration (MIC) (xenic isolate 1, Experiment 3): 310 µg/mL
Minimum Lethal Concentration (MLC) (xenic isolate 1, Experiment 3): 2500 µg/mL
Minimum Inhibitory Concentration (MIC) [2]: 630 µg/mL
Minimum Lethal Concentration (MLC) [2]: 2500 µg/mL
Minimum Inhibitory Concentration (MIC) [3]: 630 µg/mL
Minimum Lethal Concentration (MLC) [3]: 2500 µg/mL
Minimum Inhibitory Concentration (MIC) [4]: 630 µg/mL
Minimum Lethal Concentration (MLC) [4]: 2500 µg/mL
Minimum Inhibitory Concentration (MIC) [5]: 630 µg/mL
Minimum Lethal Concentration (MLC) [5]: 2500 µg/mL
Minimum Inhibitory Concentration (MIC) [6]: 310 µg/mL
Minimum Lethal Concentration (MLC) [6]: 1250 µg/mL
Minimum Inhibitory Concentration (MIC) [7]: 310 µg/mL
Minimum Lethal Concentration (MLC) [7]: 2500 µg/mL
Minimum Inhibitory Concentration (MIC) [8]: 630 µg/mL
Minimum Lethal Concentration (MLC) [8]: 5000 µg/mL
Minimum Inhibitory Concentration (MIC) [9]: 310 µg/mL
Minimum Lethal Concentration (MLC) [9]: 2500 µg/mL
Minimum Inhibitory Concentration (MIC) [10]: 310 µg/mL
Minimum Lethal Concentration (MLC) [10]: 2500 µg/mL
Minimum Inhibitory Concentration (MIC) [11]: 160 µg/mL
Minimum Lethal Concentration (MLC) [11]: 2500 µg/mL
Minimum Inhibitory Concentration (MIC) [12]: 630 µg/mL
Minimum Lethal Concentration (MLC) [12]: 2500 µg/mL
Minimum Inhibitory Concentration (MIC) [13]: 310 µg/mL
Minimum Lethal Concentration (MLC) [13]: 1250 µg/mL
Minimum Inhibitory Concentration (MIC) [14]: 630 µg/mL
Minimum Lethal Concentration (MLC) [14]: 2500 µg/mL
Minimum Inhibitory Concentration (MIC) [15]: 160 µg/mL
Minimum Lethal Concentration (MLC) [15]: 2500 µg/mL
Minimum Inhibitory Concentration (MIC) [16]: 160 µg/mL
Minimum Lethal Concentration (MLC) [16]: 2500 µg/mL
Minimum Inhibitory Concentration (MIC) [17]: 310 µg/mL
Minimum Lethal Concentration (MLC) [17]: 2500 µg/mL
Minimum Inhibitory Concentration (MIC) [18]: 310 µg/mL
Minimum Lethal Concentration (MLC) [18]: 2500 µg/mL
Minimum Inhibitory Concentration (MIC) (xenic isolate C1, Experiment 1): 1250 µg/mL
Minimum Lethal Concentration (MLC) (xenic isolate C1, Experiment 1): 2500 µg/mL
Minimum Inhibitory Concentration (MIC) (xenic isolate C1, Experiment 2): 310 µg/mL
Minimum Lethal Concentration (MLC) (xenic isolate C1, Experiment 2): 2500 µg/mL
Minimum Inhibitory Concentration (MIC) (xenic isolate C1, Experiment 3): 310 µg/mL
Minimum Lethal Concentration (MLC) (xenic isolate C1, Experiment 3): 2500 µg/mL
Minimum Inhibitory Concentration (MIC) (xenic isolate C2, Experiment 1): 630 µg/mL
Minimum Lethal Concentration (MLC) (xenic isolate C2, Experiment 1): 2500 µg/mL
Minimum Inhibitory Concentration (MIC) (xenic isolate C2, Experiment 2): 630 µg/mL
Minimum Lethal Concentration (MLC) (xenic isolate C2, Experiment 2): 2500 µg/mL
Minimum Inhibitory Concentration (MIC) (xenic isolate C2, Experiment 3): 310 µg/mL
Minimum Lethal Concentration (MLC) (xenic isolate C2, Experiment 3): 2500 µg/mL
Minimum Inhibitory Concentration (MIC) (xenic isolate DA, Experiment 1): 630 µg/mL
Minimum Lethal Concentration (MLC) (xenic isolate DA, Experiment 1): 2500 µg/mL
Minimum Inhibitory Concentration (MIC) (xenic isolate DA, Experiment 2): 630 µg/mL
Minimum Lethal Concentration (MLC) (xenic isolate DA, Experiment 2): 2500 µg/mL
Minimum Inhibitory Concentration (MIC) (xenic isolate DA, Experiment 3): 630 µg/mL
Minimum Lethal Concentration (MLC) (xenic isolate DA, Experiment 3): 2500 µg/mL
Minimum Inhibitory Concentration (MIC) [19]: 160 µg/mL
Minimum Lethal Concentration (MLC) [19]: 2500 µg/mL
Minimum Inhibitory Concentration (MIC) [20]: 310 µg/mL
Minimum Lethal Concentration (MLC) [20]: 2500 µg/mL
Minimum Inhibitory Concentration (MIC) [21]: 310 µg/mL
Minimum Lethal Concentration (MLC) [21]: 1250 µg/mL
Minimum Inhibitory Concentration (MIC) (xenic isolate GS, Experiment 1): 630 µg/mL
Minimum Lethal Concentration (MLC) (xenic isolate GS, Experiment 1): 2500 µg/mL
Minimum Inhibitory Concentration (MIC) (xenic isolate GS, Experiment 2): 630 µg/mL
Minimum Lethal Concentration (MLC) (xenic isolate GS, Experiment 2): 2500 µg/mL
Minimum Inhibitory Concentration (MIC) (xenic isolate GS, Experiment 3): 310 µg/mL
Minimum Lethal Concentration (MLC) (xenic isolate GS, Experiment 3): 2500 µg/mL
Minimum Inhibitory Concentration (MIC) (xenic isolate MS, Experiment 1): 630 µg/mL
Minimum Lethal Concentration (MLC) (xenic isolate MS, Experiment 1): 2500 µg/mL
Minimum Inhibitory Concentration (MIC) (xenic isolate MS, Experiment 2): 630 µg/mL
Minimum Lethal Concentration (MLC) (xenic isolate MS, Experiment 2): 1250 µg/mL
Minimum Inhibitory Concentration (MIC) (xenic isolate MS, Experiment 3): 630 µg/mL
Minimum Lethal Concentration (MLC) (xenic isolate MS, Experiment 3): 2500 µg/mL
Minimum Inhibitory Concentration (MIC) [22]: 310 µg/mL
Minimum Lethal Concentration (MLC) [22]: 2500 µg/mL
Minimum Inhibitory Concentration (MIC) [23]: 160 µg/mL
Minimum Lethal Concentration (MLC) [23]: 2500 µg/mL
Minimum Inhibitory Concentration (MIC) (xenic isolate SI, Experiment 1): 630 µg/mL
Minimum Lethal Concentration (MLC) (xenic isolate SI, Experiment 1): 2500 µg/mL
Minimum Inhibitory Concentration (MIC) (xenic isolate SI, Experiment 3): 630 µg/mL
Minimum Lethal Concentration (MLC) (xenic isolate SI, Experiment 3): 2500 µg/mL
Minimum Inhibitory Concentration (MIC) [24]: 630 µg/mL
Minimum Lethal Concentration (MLC) [24]: 2500 µg/mL
Minimum Inhibitory Concentration (MIC) [25]: 630 µg/mL
Minimum Lethal Concentration (MLC) [25]: 2500 µg/mL
Minimum Inhibitory Concentration (MIC) [26]: 310 µg/mL
Minimum Lethal Concentration (MLC) [26]: 2500 µg/mL
Minimum Inhibitory Concentration (MIC) [27]: 630 µg/mL
Minimum Lethal Concentration (MLC) [27]: 5000 µg/mL
Minimum Inhibitory Concentration (MIC) [28]: 310 µg/mL
Minimum Lethal Concentration (MLC) [28]: 5000 µg/mL
Minimum Inhibitory Concentration (MIC) [29]: 160 µg/mL
Minimum Lethal Concentration (MLC) [29]: 2500 µg/mL
Minimum Inhibitory Concentration (MIC) (xenic isolate T4, Experiment 1): 310 µg/mL
Minimum Lethal Concentration (MLC) (xenic isolate T4, Experiment 1): 2500 µg/mL
Minimum Inhibitory Concentration (MIC) (xenic isolate T4, Experiment 2): 310 µg/mL
Minimum Lethal Concentration (MLC) (xenic isolate T4, Experiment 2): 2500 µg/mL
Minimum Inhibitory Concentration (MIC) (xenic isolate T4, Experiment 3): 160 µg/mL
Minimum Lethal Concentration (MLC) (xenic isolate T4, Experiment 3): 2500 µg/mL
Minimum Inhibitory Concentration (MIC) (xenic isolate T6, Experiment 1): 310 µg/mL
Minimum Lethal Concentration (MLC) (xenic isolate T6, Experiment 1): 2500 µg/mL
Minimum Inhibitory Concentration (MIC) (xenic isolate T6, Experiment 2): 630 µg/mL
Minimum Lethal Concentration (MLC) (xenic isolate T6, Experiment 2): 2500 µg/mL
Minimum Inhibitory Concentration (MIC) (xenic isolate T6, Experiment 3): 310 µg/mL
Minimum Lethal Concentration (MLC) (xenic isolate T6, Experiment 3): 2500 µg/mL
Minimum Inhibitory Concentration (MIC) [30]: 630 µg/mL
Minimum Lethal Concentration (MLC) [30]: 2500 µg/mL
Minimum Inhibitory Concentration (MIC) [31]: 1250 µg/mL
Minimum Lethal Concentration (MLC) [31]: 2500 µg/mL
Minimum Inhibitory Concentration (MIC) [32]: 630 µg/mL
Minimum Lethal Concentration (MLC) [32]: 2500 µg/mL
Minimum Inhibitory Concentration (MIC) [33]: 630 µg/mL
Minimum Lethal Concentration (MLC) [33]: 2500 µg/mL
Minimum Inhibitory Concentration (MIC) [34]: 310 µg/mL
Minimum Lethal Concentration (MLC) [34]: 2500 µg/mL
